# Reference: US20140301980A1, “METHODS FOR THE TREATMENT OF PSORIATIC ARTHRITIS USING APREMILAST” (CELGENE CORPORATION, priority 2013, published 2014)
# Assays:
# [1] = tested on: adult patients with active PsA; test: Phase III clinical study PALACE 1 in active psoriatic arthritis; assay type: in vivo, human; settings: for Patients achieving remission, DAS28(CRP) less than 2.6: N=168; for Physician's global assessment of disease activity, % Change (percent improvement) / Subject's assessment of pain, % Change (percent improvement) / Subject's global assessment of disease activity, % Change (percent improvement): VAS; for Number of swollen joints, % Change (percent improvement): scale 0-76; for Number of tender joints, % Change (percent improvement): scale 0-78; for Proportion of patients with ACR 20 response / Proportion of patients with ACR 50 response / Proportion of patients with ACR 70 response: N = 168
# Protocol: (§1) The safety and efficacy of apremilast was evaluated in three multi-center, randomized, double-blind, placebo-controlled trials (Studies PALACE 1, PALACE 2, and PALACE 3) of similar design. A total of 1493 adult patients with active PsA (≧3 swollen joints and ≧3 tender joints) despite prior or current treatment with disease-modifying antirheumatic drug (DMARD) therapy were randomized. […] One qualifying psoriatic skin lesion of at least 2 cm in diameter was required in PALACE 3. Previous treatment with a biologic, including TNF-blockers was allowed.
# (§2) Across the 3 studies, patients were randomly assigned to placebo (n=496), apremilast 20 mg (n=500), or apremilast 30 mg (n=497) given orally twice daily. Patients were allowed to receive stable doses of concomitant methotrexate (MTX) (≦25 mg/week), sulfasalazine (SSZ) (≦2 g/day), leflunomide (LEF) (≦20 mg/day), low dose oral corticosteroids (equivalent to ≦10 mg of prednisone a day), and/or nonsteroidal anti-inflammatory drugs (NSAIDs) during the trial. Treatment assignments were stratified based on small-molecule DMARD use at baseline. The patients who were therapeutic failures of >3 agents for PsA (small molecules or biologics), or >1 biologic TNF blocker were excluded.
# (§3) The primary endpoint was the percentage of patients achieving American College of Rheumatology (ACR) 20 response at Week 16. Placebo-controlled efficacy data were collected and analyzed through Week 24. Patients with each subtype of PsA were enrolled across the 3 studies, including symmetric polyarthritis (62.0%), asymmetric oligoarthritis (26.9%), distal interphalangeal (DIP) joint arthritis (6.2%), arthritis mutilans (2.7%), and predominant spondylitis (2.1%). The median duration of PsA disease was 5 years. Patients received concomitant therapy with at least one DMARD (65.2%), MTX (54.5%), SSZ (9.0%), LEF (7.4%), low dose oral corticosteroids (13.9%), and NSAIDs (70.7%). Prior treatment with small-molecule DMARDs only was reported in 76.4% of patients and prior treatment with biologic DMARDs was reported in 22.4% of patients.
# [2] = tested on: adult patients with active PsA; test: Phase III clinical study PALACE 3 in active psoriatic arthritis (PASI-75); assay type: in vivo, human; settings: patients with psoriatic involvement of at least three percent BSA
# Protocol: as §1
# as §2, with “Treatment assignments were stratified based on small-molecule DMARD use at baseline. The patients who were therapeutic failures of >3 agents for PsA (small molecules or biologics), or >1 biologic TNF blocker were excluded.” left out
# The primary endpoint was the percentage of patients achieving American College of Rheumatology (ACR) 20 response at Week 16. Placebo-controlled efficacy data were collected and analyzed through Week 24. […]
# Patients with psoriatic involvement of at least three percent body surface area (BSA) were evaluated for Psoriatic Area and Severity Index (PASI)-75 responses. […]
# [3] = tested on: adult patients with active PsA; test: Phase III clinical studies PALACE 1-3, study not specified; assay type: in vivo, human
# Protocol: as §1, §2, §3
# [4] = tested on: patients with psoriatic arthritis (PsA); test: Phase II randomized, double-blind, placebo controlled, multicenter clinical study in psoriatic arthritis; settings: for Subjects reporting a serious AE (SAE): 12 week study period
# Protocol: A phase II, randomized, double-blind, placebo controlled, multicenter clinical study was performed in North America and Europe in patients with psoriatic arthritis (PsA). […] Mean duration of PsA was 7.8 years; mean tender joint count of 22, mean swollen joint count of 10 at baseline (Moll & Wright criteria). […] Stable doses of NSAIDs, corticosteroids (≦10 mg/day prednisone or equivalent), and methotrexate were allowed.
structure (smiles),measurement,setting,value
"CCOc1cc([C@@H](CS(C)(=O)=O)N2C(=O)c3cccc(NC(C)=O)c3C2=O)ccc1OC [apremilast, (+)-2-[1-(3-ethoxy-4-methoxyphenyl)-2-methylsulfonylethyl]-4-acetylaminoisoindoline-1,3-dione]",Proportion of HAQ-DI responders (≧0.3 change from baseline) compared to placebo,[1]; Week 16,greater proportion
same,"Patients achieving remission, DAS28(CRP) less than 2.6","[1]; Week 16, 30 mg BID with or without DMARDs",13.1%
same,"CRP, % Change (percent improvement)","[1]; Week 16, 30 mg BID ± DMARDs",12.40%
same,"HAQ-DI score, % Change (percent improvement)","[1]; Week 16, 30 mg BID ± DMARDs",20.00%
same,"Physician's global assessment of disease activity, % Change (percent improvement)","[1]; Week 16, 30 mg BID ± DMARDs",42.31%
same,"Subject's assessment of pain, % Change (percent improvement)","[1]; Week 16, 30 mg BID ± DMARDs",26.00%
same,"Subject's global assessment of disease activity, % Change (percent improvement)","[1]; Week 16, 30 mg BID ± DMARDs",20.29%
same,"Number of swollen joints, % Change (percent improvement)","[1]; Week 16, 30 mg BID ± DMARDs",50.00%
same,"Number of tender joints, % Change (percent improvement)","[1]; Week 16, 30 mg BID ± DMARDs",43.17%
same,ACR 20 response rate,"[1]; Week 16, apremilast alone (29/62 patients)",46.8%
same,ACR 20 response rate,"[1]; Week 16, biologic-naive patients, concomitant with DMARD (51/124 patients)",41.1%
same,ACR 20 response rate,"[1]; Week 16, concomitant with DMARD (35/106 patients)",33.0%
same,ACR 20 response rate,"[1]; Week 16, previously treated with small molecule and/or biologic DMARD (11/41 patients)",26.8%
same,Proportion of patients with ACR 20 response,"[1]; Week 16, ± DMARDs",38.1%
same,Proportion of patients with ACR 50 response,"[1]; Week 16, ± DMARDs",16.1%
same,Proportion of patients with ACR 70 response,"[1]; Week 16, ± DMARDs",4.2%
same,ACR 20 response rate,"[1]; Week 24, 30 mg BID for up to 24 weeks, independent of response at Week 16",43.5%
same,"Patients achieving remission, DAS28(CRP) less than 2.6","[1]; Week 24, 30 mg BID with or without DMARDs",19.0%
same,"CRP, % Change (percent improvement)","[1]; Week 24, 30 mg BID ± DMARDs",8.45%
same,"HAQ-DI score, % Change (percent improvement)","[1]; Week 24, 30 mg BID ± DMARDs",20.00%
same,"Physician's global assessment of disease activity, % Change (percent improvement)","[1]; Week 24, 30 mg BID ± DMARDs",35.90%
same,"Subject's assessment of pain, % Change (percent improvement)","[1]; Week 24, 30 mg BID ± DMARDs",27.67%
same,"Subject's global assessment of disease activity, % Change (percent improvement)","[1]; Week 24, 30 mg BID ± DMARDs",23.92%
same,"Number of swollen joints, % Change (percent improvement)","[1]; Week 24, 30 mg BID ± DMARDs",50.00%
same,"Number of tender joints, % Change (percent improvement)","[1]; Week 24, 30 mg BID ± DMARDs",44.83%
same,Proportion of patients with ACR 20 response,"[1]; Week 24, ± DMARDs",35.1%
same,Proportion of patients with ACR 50 response,"[1]; Week 24, ± DMARDs",19.0%
same,Proportion of patients with ACR 70 response,"[1]; Week 24, ± DMARDs",10.1%
same,Change in mean HAQ-DI score from baseline,"[1]; baseline to Week 16, p=0.0017 vs placebo",−0.244
same,Proportion of patients achieving PASI-75,"[2]; Week 16, 30 BID",22.2%
same,Proportion of patients achieving PASI-75,"[2]; Week 24, 30 BID",25.6%
same,"Mental Component Summary score (MCS), mean change from baseline","[3]; human, in vivo",No worsening
same,"SF-36v2 physical functioning domain and physical component summary score, change from baseline compared to placebo","[3]; human, in vivo",greater improvement
same,Dactylitis and enthesitis,[3]; patients with pre-existing dactylitis or enthesitis,improvement
same,Discontinuations due to AEs,[4]; 20 mg BID,9%
same,Discontinuations due to lack of efficacy,[4]; 20 mg BID,7%
same,Subjects reporting a serious AE (SAE),[4]; 20 mg BID,4 subjects
same,"Primary endpoint, ACR20 at 12 weeks",[4]; 20 mg BID,met
same,ACR20 at 24 weeks,"[4]; 20 mg BID, evaluable subjects, 24 weeks",40%
same,Discontinuations due to AEs,[4]; 40 mg QD,6%
same,Discontinuations due to lack of efficacy,[4]; 40 mg QD,0%
same,Subjects reporting a serious AE (SAE),[4]; 40 mg QD,0 subjects
same,"Primary endpoint, ACR20 at 12 weeks",[4]; 40 mg QD,met
same,ACR20 at 24 weeks,"[4]; 40 mg QD, evaluable subjects, 24 weeks",39.1%
same,Subjects reporting an SAE in the extension,"[4]; active-drug extension, weeks 12-24",7 subjects
same,ACR20 at 24 weeks,[4]; placebo subjects switched to 20 mg BID in the extension,35%
same,ACR20 at 24 weeks,[4]; placebo subjects switched to 40 mg QD in the extension,40%
same,Deaths,[4]; whole study,no deaths
